Five molecules from BindingDB's records for doi:10.1046/j.1471-4159.1997.69051810.x (Janssen Research Foundation, 1997) can be followed below.

pKi: −log10 of the molar value.

As usually defined, the pKi is the Ki on a negative log10 scale, so that one unit is a factor of ten. Read a low pKi as a high Ki.

Assay [1] deals with 5-hydroxytryptamine receptor 4 (Cavia porcellus, UniProt O70528).
Assay [2] addresses 5-hydroxytryptamine receptor 4 (Homo sapiens, UniProt Q13639).

Chain of 5-hydroxytryptamine receptor 4 (Homo sapiens, UniProt Q13639) (Q13639 whole entry): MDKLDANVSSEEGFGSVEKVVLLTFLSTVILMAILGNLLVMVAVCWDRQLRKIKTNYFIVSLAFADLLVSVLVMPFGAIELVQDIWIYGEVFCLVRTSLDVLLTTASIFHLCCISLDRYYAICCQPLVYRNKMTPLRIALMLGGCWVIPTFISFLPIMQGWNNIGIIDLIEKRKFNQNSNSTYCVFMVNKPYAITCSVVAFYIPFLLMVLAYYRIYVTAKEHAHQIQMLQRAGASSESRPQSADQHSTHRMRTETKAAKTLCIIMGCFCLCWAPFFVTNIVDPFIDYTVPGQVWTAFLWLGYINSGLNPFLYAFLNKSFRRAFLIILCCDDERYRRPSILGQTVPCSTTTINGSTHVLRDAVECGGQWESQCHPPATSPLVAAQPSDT
Chain of 5-hydroxytryptamine receptor 4 (Cavia porcellus, UniProt O70528) (O70528 whole entry): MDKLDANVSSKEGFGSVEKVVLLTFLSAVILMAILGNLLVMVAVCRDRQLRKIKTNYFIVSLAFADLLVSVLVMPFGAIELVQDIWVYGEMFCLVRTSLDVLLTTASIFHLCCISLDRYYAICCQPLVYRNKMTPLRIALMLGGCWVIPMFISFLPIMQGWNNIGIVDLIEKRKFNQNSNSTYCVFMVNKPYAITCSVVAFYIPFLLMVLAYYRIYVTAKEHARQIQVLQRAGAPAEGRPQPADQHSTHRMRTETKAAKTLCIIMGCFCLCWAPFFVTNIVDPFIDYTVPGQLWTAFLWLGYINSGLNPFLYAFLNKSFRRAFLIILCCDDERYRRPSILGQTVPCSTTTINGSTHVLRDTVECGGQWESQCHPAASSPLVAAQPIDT

Consider `CN1C2CCC1CC(OC(=O)c1c[nH]c3ccccc13)C2` (centres undefined), for which the negative logarithm of the Ki (pKi) in assay [1] was 6.70.

`CCCCN1CCC(COC(=O)c2cc(Cl)c(N)c3c2OCCO3)CC1` [CAS_121881]: the pKi was 10.00 in assay [2] and 10.15 in assay [1].

For `Cn1cc(C(=O)OCC2CCN(CCNS(C)(=O)=O)CC2)c2ccccc21` [GR 113808], the pKi is 9.60 in assay [2] and 9.41 in assay [1].

On to `COc1[nH]c2ccc(F)cc2c1C(=O)OCC1CCN(CCNS(C)(=O)=O)CC1` [GR-125487], for which the negative logarithm of the Ki (pKi) is 9.82 in assay [2] and 9.72 in assay [1].

With `COc1ccc2[nH]cc(CCN)c2c1` [tryptamine, 5-Methoxy], the pKi was 6.00 in assay [2] and 6.60 in assay [1].
